*1 amine or outer side, *2 acyl side, *3 side chain or, on linkers, in order; H or OH if unused. Where a SMILES comes first, the peptide text is derived from it. Bridges are numbered along the chain shown (N, C = ends). [ ]: non-standard residue; d: D form. The star is where a group is joined. C20 diacid = O=C(O)CCCCCCCCCCCCCCCCCCC(=O)*; Pro(4R-NH2) = N[C@H]1CN[C@H](C(=O)O)C1; γGlu = O=C(O)[C@H](CCC(=O)[*:2])N[*:1]; Hyp = O=C(O)[C@@H]1C[C@@H](O)CN1; NMeI = CC[C@H](C)[C@H](NC)C(=O)O; Aad = N[C@@H](CCCC(=O)O)C(=O)O; Sar = CNCC(=O)O
Legend:
[1] = Assessment of physical stability (Thioflavin T fibrillation); format: physicochemical; parameters: key: FND = fibrillation not detected; FD = fibrillation detected; settings: 1 mg/ml, 40° C., ThT; for Fibrillation pH 4.0 (Ac): 50 mM acetate buffer pH 4.0, 96 hours; for Fibrillation pH 7.0 (His): 50 mM histidine buffer pH 7.0, 96 hours; for Fibrillation pH 7.0 (Phos.): 50 mM phosphate buffer pH 7.0, 96 hours
Description: Solutions containing (i) 1 mg/ml of test peptide, 40 μM ThT and 50 mM phosphate (Ph) buffer (pH 7.0), (ii) 1 mg/ml of test peptide, 40 μM ThT and 50 mM histidine (His) buffer (pH 7.0), and (iii) 1 mg/ml of test peptide, 40 μM ThT and 50 mM acetate (Ac) buffer (pH 4.0), were loaded in a 96-well black fluorescence plate (clear bottom) in triplicate. Data were collected at fixed intervals of 10 min, each preceded by 300 s of automixing (agitation), over a period of 96 hours at 40° C. Physical stability, expressed as lag-time of fibril formation (in hours), was defined as the intersection between two linear regressions representing the initial stable phase and the growth phase.

[2] = Assessment of chemical stability (RP-HPLC normalized purity); format: physicochemical; settings: 7 days, 40° C., Table 1; for Normalized purity after 7 days, 40° C., pH 4: pH 4, 0.2 mg/ml; for Normalized purity after 7 days, 40° C., pH 7.5: pH 7.5, 0.2 mg/ml; for Normalized purity after 7 days, 40° C., pH 9: pH 9, 0.2 mg/ml; for Normalized purity after 7 days, 40° C., pH 6: pH 6, 0.2 mg/ml
Description: Samples of each test peptide were dissolved in MilliQ™ water, and the pH of the solution was adjusted to pH 4, pH 6, pH 7.5 or pH 9, respectively, using either HCl or NaOH. The final peptide concentration was 0.2 mg/ml. Samples were placed in glass vials and incubated at 40° C. The samples were analyzed by RP-HPLC on a C8 column with gradient elution using an ammonium formate/water eluent system, or on a C18 column with gradient elution using a trifluoroacetic acid/water eluent system. The area-percentage (area-%) of the main peak after incubation time T=t (relative to time T=0) was determined by UV spectroscopy at 220 nm.
The purity was first determined as follows:
Purity(area-%)=(area of main peak/total area of all peaks)×100.
The purity was then normalized between time points by setting purity at time 0 (T=0) to 100 for each pH value for a given peptide, as follows:
Normalised area-% at time t (T=t)=[area-%(T=t)/area-%(T=0)]×100.
The normalized purity values in Table 1 were determined after 7 days of incubation.
The chemical stability assessment described in Example 6 was repeated for four pairs of compounds, each differing only by the presence or absence of an Asn-Asn (N—N) doublet at positions 21 and 22.

SMILES | Fibrillation pH 4.0 (Ac) [1] | Fibrillation pH 7.0 (His) [1] | Fibrillation pH 7.0 (Phos.) [1] | Normalized purity after 7 days, 40° C., pH 4 [2] | Normalized purity after 7 days, 40° C., pH 7.5 [2] | Normalized purity after 7 days, 40° C., pH 9 [2] | Normalized purity after 7 days, 40° C., pH 6 [2]
CC[C@H](C)[C@@H](C(=O)N[C@@H](CC(C)C)C(=O)N[C@@H](CO)C(=O)N[C@@H](CO)C(=O)N[C@H](C(=O)N[C@@H](CC(N)=O)C(=O)N[C@H](C(=O)NCC(=O)N[C@@H](CO)C(=O)N[C@@H](CC(N)=O)C(=O)N[C@H](C(=O)N1C[C@H](N)C[C@H]1C(N)=O)[C@@H](C)O)C(C)C)[C@@H](C)O)N(C)C(=O)[C@H](C)NC(=O)CN(C)C(=O)[C@H](Cc1ccccc1)NC(=O)[C@H](CC(N)=O)NC(=O)[C@H](CC(N)=O)NC(=O)[C@H](CO)NC(=O)[C@H](CO)NC(=O)[C@H](CCCNC(=N)N)NC(=O)[C@H](Cc1c[nH]cn1)NC(=O)[C@H](CC(C)C)NC(=O)[C@H](Cc1ccccc1)NC(=O)[C@H](Cc1c[nH]cn1)NC(=O)[C@H](C)NC(=O)[C@H](CC(C)C)NC(=O)[C@H](CCCNC(=N)N)NC(=O)[C@H](CCC(N)=O)NC(=O)[C@@H](NC(=O)[C@H](C)NC(=O)[C@@H]1CSSC[C@H](NC(=O)[C@H](CCCNC(=N)N)NC(=O)CC[C@H](NC(=O)CCCCCCCCCCCCCCCCCCC(=O)O)C(=O)O)C(=O)N[C@@H](CC(N)=O)C(=O)N[C@@H]([C@@H](C)O)C(=O)N[C@@H](C)C(=O)N[C@@H]([C@@H](C)O)C(=O)N1)[C@@H](C)O [Compound 5, [19CD]-isoGlu-R-C( )-NTAT-C( )-ATQRLAHFLHRSSNNF-Gly(Me)-A-Ile(Me)-LSSINVGSNT-Apr-NH2] ({C20 diacid-γGlu}-RCNTATCATQRLAHFLHRSSNNF[Sar]A[NMeI]LSSTNVGSNT[Pro(4R-NH2)]-NH2; disulfide 2-7) | FND | FND | FND | B (B = 70-90%) | C (C = <70%) | C (C = <70%) | 
CC[C@H](C)[C@@H](C(=O)N[C@@H](CC(C)C)C(=O)N[C@@H](CO)C(=O)N[C@@H](CO)C(=O)N[C@H](C(=O)N[C@@H](CCC(=O)O)C(=O)N[C@H](C(=O)NCC(=O)N[C@@H](CO)C(=O)N[C@@H](CC(N)=O)C(=O)N[C@H](C(=O)N1C[C@H](O)C[C@H]1C(N)=O)[C@@H](C)O)C(C)C)[C@@H](C)O)N(C)C(=O)[C@H](C)NC(=O)CN(C)C(=O)[C@H](Cc1ccccc1)NC(=O)[C@H](CO)NC(=O)[C@H](CO)NC(=O)[C@H](CCCNC(=N)N)NC(=O)[C@H](CCC(=O)O)NC(=O)[C@H](CC(C)C)NC(=O)[C@H](Cc1ccccc1)NC(=O)[C@H](Cc1c[nH]cn1)NC(=O)[C@H](C)NC(=O)[C@H](CC(C)C)NC(=O)[C@H](CCCNC(=N)N)NC(=O)[C@H](CCC(=O)O)NC(=O)[C@@H](NC(=O)[C@H](C)NC(=O)[C@@H]1CSSC[C@H](NC(=O)[C@H](CCCNC(=N)N)NC(=O)CC[C@H](NC(=O)CCCCCCCCCCCCCCCCCCC(=O)O)C(=O)O)C(=O)NCC(=O)N[C@@H]([C@@H](C)O)C(=O)N[C@@H](C)C(=O)N[C@@H]([C@@H](C)O)C(=O)N1)[C@@H](C)O [Compound 8, [19CD]-isoGlu-R-C( )-GTAT-C( )-ATERLAHFLERSSF-Gly(Me)-A-Ile(Me)-LSSTEVGSNT-Hyp-NH2] ({C20 diacid-γGlu}-RCGTATCATERLAHFLERSSF[Sar]A[NMeI]LSSTEVGSNT[Hyp]-NH2; disulfide 2-7) | FND | FND | FND | A (A = >90%) | A (A = >90%) | A (A = >90%) | B (B = 70-90%)
CC[C@H](C)[C@@H](C(=O)N[C@@H](CC(C)C)C(=O)N[C@@H](CO)C(=O)N[C@@H](CO)C(=O)N[C@H](C(=O)N[C@@H](CCC(=O)O)C(=O)N[C@H](C(=O)NCC(=O)N[C@@H](CO)C(=O)N[C@@H](CCCC(=O)O)C(=O)N[C@H](C(=O)N1C[C@H](O)C[C@H]1C(N)=O)[C@@H](C)O)C(C)C)[C@@H](C)O)N(C)C(=O)[C@H](C)NC(=O)CN(C)C(=O)[C@H](Cc1ccccc1)NC(=O)[C@H](CO)NC(=O)[C@H](CO)NC(=O)[C@H](CCCNC(=N)N)NC(=O)[C@@H](NC(=O)[C@H](CC(C)C)NC(=O)[C@H](Cc1ccccc1)NC(=O)[C@H](Cc1c[nH]cn1)NC(=O)[C@H](C)NC(=O)[C@H](CC(C)C)NC(=O)[C@H](CCCNC(=N)N)NC(=O)[C@H](CCC(=O)O)NC(=O)[C@@H](NC(=O)[C@H](C)NC(=O)[C@@H]1CSSC[C@H](NC(=O)[C@H](CCCNC(=N)N)NC(=O)CC[C@H](NC(=O)CCCCCCCCCCCCCCCCCCC(=O)O)C(=O)O)C(=O)NCC(=O)N[C@@H]([C@@H](C)O)C(=O)N[C@@H](C)C(=O)N[C@@H]([C@@H](C)O)C(=O)N1)[C@@H](C)O)[C@@H](C)O [Compound 12, [19CD]-isoGlu-R-C( )-GTAT-C( )-ATERLAHFLTRSSF-Gly(Me)-A-Ile(Me)-LSSTEVGS-Aad-T-Hyp-NH2] ({C20 diacid-γGlu}-RCGTATCATERLAHFLTRSSF[Sar]A[NMeI]LSSTEVGS[Aad]T[Hyp]-NH2; disulfide 2-7) | FND | FD | FD | A (A = >90%) | B (B = 70-90%) | B (B = 70-90%) | A (A = >90%)
CC[C@H](C)[C@@H](C(=O)N[C@@H](CC(C)C)C(=O)N[C@@H](CO)C(=O)N[C@@H](CO)C(=O)N[C@H](C(=O)N[C@@H](CCC(=O)O)C(=O)N[C@H](C(=O)NCC(=O)N[C@@H](CO)C(=O)N[C@@H](CCC(=O)O)C(=O)N[C@H](C(=O)N1CCC[C@H]1C(N)=O)[C@@H](C)O)C(C)C)[C@@H](C)O)N(C)C(=O)[C@H](C)NC(=O)CN(C)C(=O)[C@H](Cc1ccccc1)NC(=O)[C@H](CCCNC(=N)N)NC(=O)[C@H](Cc1c[nH]cn1)NC(=O)[C@H](CC(C)C)NC(=O)[C@H](Cc1ccccc1)NC(=O)[C@H](Cc1c[nH]cn1)NC(=O)[C@H](C)NC(=O)[C@H](CC(C)C)NC(=O)[C@H](CCCNC(=N)N)NC(=O)[C@H](CCC(N)=O)NC(=O)[C@@H](NC(=O)[C@H](C)NC(=O)[C@@H]1CSSC[C@H](NC(=O)[C@H](CCCNC(=N)N)NC(=O)CC[C@H](NC(=O)CCCCCCCCCCCCCCCCCCC(=O)O)C(=O)O)C(=O)N[C@@H](CC(N)=O)C(=O)N[C@@H]([C@@H](C)O)C(=O)N[C@@H](C)C(=O)N[C@@H]([C@@H](C)O)C(=O)N1)[C@@H](C)O [Compound 14, [19CD]-isoGlu-R-C( )-NTAT-C( )-ATQRLAHFLHRF-Gly(Me)-A-Ile(Me)-LSSTEVGSETP-NH2] ({C20 diacid-γGlu}-RCNTATCATQRLAHFLHRF[Sar]A[NMeI]LSSTEVGSETP-NH2; disulfide 2-7) | FND | FD | FND | A (A = >90%) | A (A = >90%) | A (A = >90%) | A (A = >90%)

Source: US20210115104A1, “AMYLIN ANALOGUES” (Zealand Pharma A/S, priority 2015, published 2021)
